Where two headings read alike, the source gives them in different places.
Key:
panel of 4 panelists = assay: Organoleptic test against sucrose and baiyunoside (taste panel); format: in vivo; design: key to compared to sucrose*: 3: sweeter than the control solution; 2: sweetness comparable with the control solution; 1: less sweet than the control solution but still sweet; conditions: for comment: cooling effect / comment: sweetness relative to Baiyunoside / comment: bitterness / off-taste / comment: lingering / persistence of sweet taste: 0.4 mg/ml (400 ppm) in non-carbonated mineral water; for comment: bitterness / off-taste / comment: lingering / persistence of sweet taste: compounds compared with Baiyunoside; for compared to sucrose*: sweetness score, 0.4 mg/ml (400 ppm) in non-carbonated mineral water vs sucrose 20 mg/ml, 4 panelists
Description: Organoleptic test of the compounds of formula (I) against sucrose and baiyunoside

[1] = quoted from Tanaka et al.; cited from earlier work
[2] = Solubility in non-carbonated mineral water at the test concentration; conditions: 0.4 mg/ml (400 ppm) in non-carbonated mineral water
Description: The isolated pure compounds were dissolved in non-carbonated mineral water ("Fonsana Quelle") in a concentration of 0.4 mg/ml (400 ppm).

[3] = literature; printed as "often >100x sweeter than sucrose"; cited from earlier work

## CC1=C(CCc2ccoc2)C2(C)CCC(OC3OC(CO)C(O)C(OS(=O)(=O)O)C3OC3OCC(O)C(O)C3O)C(C)(C)C2CC1 (centres unmarked) [Compound B, Baiyunoside-3'-sulfate]
Panel of 4 panelists
  comment: cooling effect: Shows a remarkable cooling effect.
  comment: sweetness relative to Baiyunoside: Sweeter
  comment: bitterness / off-taste: less bitter
  comment: lingering / persistence of sweet taste: less lingering
  compared to sucrose*: 3

## Baiyunoside [reference compound]
Panel of 4 panelists
  comment: bitterness / off-taste: bitter and licorice off-taste
  comment: lingering / persistence of sweet taste: very long lingering and persistent sweet taste
Panel of 4 panelists; Baiyunoside solution at nominal 0.4 mg/ml, not completely dissolved, vs sucrose 20 mg/ml
  sweetness compared with the sucrose solution (in words): comparable to the sweetness of the sucrose solution
[1]
  duration of sweetness: more than one h
  sweetness relative to sucrose: about 500 times
[2]
  solubility: not completely soluble

## C[C@H](CC[C@@H](O[C@@H]1O[C@H](CO[C@@H]2O[C@H](CO)[C@@H](O)[C@H](O)[C@H]2O)[C@@H](O)[C@H](O)[C@H]1O[C@@H]1O[C@H](CO)[C@@H](O)[C@H](O)[C@H]1O)C(C)(C)O)[C@H]1CC[C@@]2(C)[C@@H]3CC=C4[C@@H](CC[C@H](O[C@@H]5O[C@H](CO[C@@H]6O[C@H](CO)[C@@H](O)[C@H](O)[C@H]6O)[C@@H](O)[C@H](O)[C@H]5O)C4(C)C)[C@]3(C)[C@H](O)C[C@]12C [mogroside V]
[3]
  sweetness relative to sucrose: > 100 x

## Baiyunol-3-(2'-arabinopyranosyl)-glucoside [Compound D]
Panel of 4 panelists
  comment: cooling effect: Shows a remarkable cooling effect.
  comment: sweetness relative to Baiyunoside: Sweeter
  comment: bitterness / off-taste: as bitter as Baiyunoside
  comment: lingering / persistence of sweet taste: less lingering
  compared to sucrose*: 3
[2]
  solubility: not completely soluble but better soluble than Baiyunoisde

## C[C@H](CC[C@@H](O[C@@H]1O[C@H](CO[C@@H]2O[C@H](CO)[C@@H](O)[C@H](O)[C@H]2O)[C@@H](O)[C@H](O)[C@H]1O[C@@H]1O[C@H](CO)[C@@H](O)[C@H](O)[C@H]1O)C(C)(C)O)[C@H]1CC[C@@]2(C)[C@@H]3CC=C4[C@@H](CC[C@H](O[C@@H]5O[C@H](CO)[C@@H](O[C@@H]6O[C@H](CO)[C@@H](O)[C@H](O)[C@H]6O)[C@H](O)[C@H]5O)C4(C)C)[C@]3(C)[C@H](O)C[C@]12C [iso-mogroside V]
[3]
  sweetness relative to sucrose: > 100 x

## CC1=C(CCc2ccoc2)C2(C)CCC(OC3OC(COS(=O)(=O)O)C(O)C(O)C3OC3OCC(O)C(O)C3O)C(C)(C)C2CC1 (centres unmarked) [Compound A, Baiyunoside-6'-sulfate]
Panel of 4 panelists
  comment: cooling effect: Shows a remarkable cooling effect.
  comment: sweetness relative to Baiyunoside: Sweeter
  comment: bitterness / off-taste: less bitter
  comment: lingering / persistence of sweet taste: less lingering
  compared to sucrose*: 3

## CC1=C(CCc2ccoc2)C2(C)CCC(OC3OC(COS(=O)(=O)O)C(O)C(O)C3O)C(C)(C)C2CC1 (centres unmarked) [Compound C, Baiyunol-3-glucosyl-6'-sulfate]
Panel of 4 panelists
  comment: cooling effect: Shows a remarkable cooling effect.
  comment: sweetness relative to Baiyunoside: Sweeter
  comment: bitterness / off-taste: less bitter
  comment: lingering / persistence of sweet taste: less lingering
  compared to sucrose*: 3

Source: patent publication EP3461349A1, “NOVEL DITERPENE GLYCOSIDES AS SWEETENERS OR SWEETENER ENHANCER” (Analyticon Discovery GmbH, priority 2017, dated 2019)
